One data set deals with T1, Mu-opioid receptor (Homo sapiens, UniProt P35372).
T1 construct: expressed in transfected cells; host or cells: HEK293
Nature of the data set: cAMP functional experiment, Mu-opioid receptor (forskolin-induced cAMP accumulation). The data set is classed as cell-based. The procedure:
(§1) The agonistic activity of the cyclopeptide molecule of the present invention against Mu-opioid receptor, Delta-opioid receptor, Kappa-opioid receptor, NPFF1 receptor and NPFF2 receptor was evaluated by detecting the regulation of the cyclopeptide molecule of the present invention on the intracellular accumulation of cyclic adenosine monophosphate (cAMP) induced by Forskolin in HEK293 cells stably expressing these five receptors. The experimental method was: the cells were seeded in 24 well plates with 120000 cells per well, and were cultured for more than 20 hours. At the beginning of the experiment, the culture medium in the culture dish was suck out, and then 500 μL of preheated serum-free medium containing 1 mM of IBMX was added, the mixture was incubated at 37° C. for 10 minutes. Then each 10 μL of the drug to be tested and 10 μM of forskolin (final concentration) were added to each well. The mixture was incubated at 37° C. for 30 minutes. After incubation, all the liquid was suck out from the culture dish, 500 μL of 0.2 N hydrochloric acid was added to each well, the mixture was incubated at room temperature for 30 minutes to promote cell lysis. After lysis was complete, NaOH was added to neutralize the hydrochloric acid solution used for lysis. Then all the liquid was suck out from the culture dish into centrifuge tubes, the liquid was centrifuged at 12000 rpm for 2 minutes. 50 μL was taken to a clean centrifuge tube, 100 μL of 60 μg/μL PKA was added, and 100 μL of TE cAMP buffer was added to the blank control group (B). Another 50 μL of 0.5 μ Ci[^3H]cAMP was added to each of the above centrifuge tubes, the mixture was quickly mixed and incubated at 4° C. for more than 2 hours. After incubation, another 100 μL of activated carbon suspension was added to each tube, the mixture was vortex agitated evenly, placed in an ice bath for 1 minute, centrifuged at 5000 rpm for 4 minutes. 200 μL of supernatant after centrifugation in each tube was suck out to a 24 well plate, with an additional 700 μL of scintillator liquid added per well, then the 24 well plate was sealed with adhesive film, placed for 3 hours, then placed on the scintillation instrument for measurement.
(§2) The inhibitory effect of cAMP was represented by the percentage (% control) of drug inhibition of intracellular cAMP accumulation induced by Forskolin, wherein % control=(cAMP content when treated with Forskolin−cAMP content when Forskolin co-treated with the test drug)/(cAMP content when treated with Forskolin−cAMP content when treated with solvent). The related % control data was represented by mean±S.E.M. The dose-effect relationship of the drug was statistically analyzed using a nonlinear regression model, and the IC50 values of the multi-target cyclopeptide molecule on inhibition of Forskolin induced intracellular cAMP accumulation were calculated using the statistical software GraphPad Prism version 5.0.
On the technique in general: Changes in cAMP serve as a functional read-out for many G protein-coupled receptors.

The next data set addresses T2, Kappa-opioid receptor (Homo sapiens, UniProt P41145).
T2 construct: expressed in transfected cells; host or cells: HEK293
Put plainly: cAMP functional experiment, Kappa-opioid receptor (forskolin-induced cAMP accumulation). Format: cell-based. The procedure: as §1, §2

The test system of data set [1] is Kunming male mice. Nature of the data set: Photothermal tail flick experiment, oral administration. The conditions noted are these: for Maximum analgesic time: oral administration at the maximum analgesic dose; for Maximum analgesic time / analgesic duration: tail flick; for ED50 value (95% confidence interval), oral analgesic activity / analgesic duration: oral administration; for ED50 value (95% confidence interval), oral analgesic activity: photothermal tail flick. Format: in vivo. The procedure: Two administration methods were used: peripheral subcutaneous administration and oral administration. Subsequently, the analgesic activity of the drug was studied using an acute pain model of photothermal tail flick in mice.
1 mL sterile syringe was used for oral administration (p.o.), the pinhead was replaced with a mouse gastric lavage needle, and […] of the drug was orally administered. The skin on the neck and back of the mouse was grasped with the left hand with the abdomen facing upwards. Noted that the mouse's entire body was fixed to vertical, which was beneficial for oral gavage. A gastric lavage needle (No. 12 needle and 1 mL syringe) was held in the right hand and was inserted to the esophagus along the upper jaw which is pressed the tongue tightly from the corner of the mouse's mouth. Gastric lavage fluid can be injected when the needle inserted 2.5 cm. The inserting length of the needle should be determined through practice in advance, as there is a sense of falling into a hole after the needle is inserted. If the injection position was appropriate, it should be very smooth. […] This can cause immediate death of the mouse after gavage.
The photothermal tail flick experiment is based on the experimental method summarized by D'Amour and Smith to optimize the experimental parameters. The experiment selected Kunming male mice with body weigh 21±2 g, and ambient temperature controlled at 22±2° C. The experimental mice were allowed to drink water freely and were moved from the breeding room to the experimental area for adaptation for 30 minutes before starting the experiment. Then the mice were grab with the right hand and the tail hang freely. Then the mice's tail were placed on a radiation light source, 2-3 mm away from the mice tail. The intensity of radiation heat was adjusted to the tail flick time of mice being 3-5 s, which is the basic pain threshold of photothermal tail flick. The irradiation time of the mice tail should not exceed 10 s to prevent scalding of the mice tail, which was the maximum latency for photothermal tail flick. After administration, time points of 10, 20, 30, 45, 60, 90, 120, 180, 240, 300, 360, and 420 minutes were selected to measure the tail flick latency of mice after administration.
The analgesic effect of drugs was generally evaluated using the maximum analgesic effect MPE (%), MPE (%)=100×[(pain threshold after administration−basic pain threshold)/(10 seconds−basic pain threshold)]. 50% effective dose (ED50) refers to the corresponding drug dose that causes a 50% effect. ED50 and 95% confidence interval were calculated using MPE (%) and the drug concentration that achieves the maximum analgesic effect MPE (%) by the statistical software GraphPad Prism 5.0. The difference in analgesic effects was statistically analyzed using one-way ANOVA (Dunnett test), *P<0.05, **P<0.01, and ***P<0.001 indicated significance of the difference between the group with only drug injected and the saline group.

The nature of data set [2]: Constipation side effect assay (gastrointestinal motility, activated carbon). Format: in vivo, mice. The conditions noted are these: male, Kunming, mouse, in vivo; oral injection, mice; read-out: ED50 of gastrointestinal inhibition. The procedure:
(§3) 26±2 g Kunming male mice were selected. First, the mice were starved and placed in a box without padding. The mice were not allowed to eat, but could drink water freely. The mice were starved for 16 hours then weighted, and administered orally (p.o.). After 15 minutes of administration, pre-prepared activated carbon suspension (a physiological saline suspension containing 5% activated carbon and 10% arabic gum) was orally infused into the stomach at a volume of 0.1 mL/10 g. After 30 minutes of gavage, the mice were sacrificed through cervical dislocation. The mice were dissected immediately and the entire length of the small intestine was taken from the pylorus of the stomach to the cecum. Then the total length of the small intestine and the length of carbon powder movement were measured.
(§4) The experimental data of gastrointestinal motility was represented by a percentage of gastrointestinal motility, and the specific calculation method was represented by a percentage of the distance the carbon powder moved divided by the total length of the small intestine. The data was represented by the mean±S.E.M. of the percentage of gastrointestinal motility, and the differences between compounds and saline were analyzed using one-way ANOVA (Dunnett test). *P<0.05, **P<0.01, and ***P<0.001indicated significance of the difference between only saline injected and related compounds injected.

Data set [3] concerns Kunming male mice. Described as above. Format: in vivo. As to conditions: oral; for side effect of constipation: effective dose range of analgesia. The procedure:
as §3, §4

From patent US20240166690A1, “MULTI-TARGET CY[…] FOR OPIOID/NEUROPEPTIDE FF RECEPTORS, AND PREPARATION THEREFOR AND APPLICATION THEREOF” (SHANGHAI TIANCI LIFE SCIENCE DEVELOPMENT CO., LTD., priority 2021, published 2024) come the findings set out here.

Bridge positions count the residues as written; N and C are the ends. Square brackets hold non-standard residues; d marks the D form. Peptide text beside a SMILES is read from it. NMeF = CN[C@@H](Cc1ccccc1)C(=O)O; dOrn = NCCC[C@@H](N)C(=O)O

One may read the IC50 as the concentration that gives 50% inhibition. Broadly, the ED50 is the dose at which the effect has come halfway, by size or by number of responders.

T2 sequence (P41145 whole entry): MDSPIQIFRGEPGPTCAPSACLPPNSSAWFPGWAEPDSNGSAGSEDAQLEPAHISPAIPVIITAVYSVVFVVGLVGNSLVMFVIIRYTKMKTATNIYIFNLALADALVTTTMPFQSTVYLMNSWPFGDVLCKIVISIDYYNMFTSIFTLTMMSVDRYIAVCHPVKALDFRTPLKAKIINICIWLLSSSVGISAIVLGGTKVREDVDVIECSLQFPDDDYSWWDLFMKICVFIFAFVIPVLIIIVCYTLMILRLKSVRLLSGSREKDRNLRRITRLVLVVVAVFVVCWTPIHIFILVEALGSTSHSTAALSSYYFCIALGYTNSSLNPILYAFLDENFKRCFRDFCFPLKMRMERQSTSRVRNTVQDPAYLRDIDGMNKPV
T1 sequence (P35372 whole entry): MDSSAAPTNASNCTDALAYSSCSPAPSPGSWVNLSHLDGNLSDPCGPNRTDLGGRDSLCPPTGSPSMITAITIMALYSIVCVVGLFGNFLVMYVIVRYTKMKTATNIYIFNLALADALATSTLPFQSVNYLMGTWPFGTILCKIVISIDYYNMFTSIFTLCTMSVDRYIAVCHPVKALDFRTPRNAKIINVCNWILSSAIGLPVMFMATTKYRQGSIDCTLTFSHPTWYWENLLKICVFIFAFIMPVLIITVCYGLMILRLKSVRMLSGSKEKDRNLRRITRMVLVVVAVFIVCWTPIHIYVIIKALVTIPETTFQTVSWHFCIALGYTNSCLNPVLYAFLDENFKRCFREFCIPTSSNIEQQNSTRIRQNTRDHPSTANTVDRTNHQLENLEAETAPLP

In turn, `CN1C(=O)CNC(=O)[C@H](NC(=O)[C@@H](N)Cc2ccc(O)cc2)CCCNC(=O)CC[C@@H](C(=O)N2CCC[C@H]2C(=O)N[C@@H](CCC(N)=O)C(=O)N[C@@H](CCCNC(=N)N)C(=O)N[C@@H](Cc2ccccc2)C(N)=O)NC(=O)[C@@H]1Cc1ccccc1` [Compound 11, Tyr-c^[2,5][D-Orn-Gly-NMe-Phe-Glu]-Pro-Gln-Arg-Phe-NH2] (H-Y[dOrn]G[NMeF]EPQRF-NH2; lactam 2-5) returned an IC50 against Mu-opioid receptor of 84 nM. At Kappa-opioid receptor, this molecule had an IC50 of 109 nM. Further, in the data set on Kunming male mice [1], the Maximum analgesic time came to 20 min; the “ED50 value (95% confidence interval), oral analgesic activity” value came to 0.14 µg/kg; the analgesic duration was determined as 240 min. The ED50 at 45 min in data set [2] worked out at 1.24 mg/kg. In the data set with Kunming male mice [3], the “ED50 of gastrointestinal inhibition relative to analgesic ED50” value was found to be 8850 times and the “side effect of constipation” value is recorded as “no side effect of constipation within the effective dose range of analgesia”.

`CN1C(=O)CNC(=O)[C@H](NC(=O)[C@@H](N)Cc2ccc(O)cc2)CCCCNC(=O)C[C@@H](C(=O)N2CCC[C@H]2C(=O)N[C@@H](CCC(N)=O)C(=O)N[C@@H](CCCNC(=N)N)C(=O)N[C@@H](Cc2ccccc2)C(N)=O)NC(=O)[C@@H]1Cc1ccccc1` [Compound 1, Tyr-c[D-Lys-Gly-NMe-Phe-Asp]-Pro-Gln-Arg-Phe-NH2] (H-Y[dK]G[NMeF]DPQRF-NH2; lactam 2-5): the midpoint of inhibition on Mu-opioid receptor, the IC50, lay at 93.5 nM. On Kappa-opioid receptor, this molecule had an IC50 of 39 nM. In addition, in the data set on Kunming male mice [1], the Maximum analgesic time was determined as 30 min; the “ED50 value (95% confidence interval), oral analgesic activity” value turned out to be 1.37 µg/kg; the analgesic duration was determined as 240 min. Also, in data set [2], the ED50 at 45 min stood at 37.1 mg/kg. In addition, in the data set with Kunming male mice [3], the “ED50 of gastrointestinal inhibition relative to analgesic ED50” value came out at 27044 times and the “side effect of constipation” value was “no side effect of constipation within the effective dose range of analgesia”.
